Patent US20250360167A1 (Keryx Biopharmaceuticals, Inc., priority 2013, published 2025)

Key:
Format in all cases: in vivo, human
[1] = test system: serum bicarbonate; test: Phase 3 trial (Example 1): serum bicarbonate concentration; details: for Serum Bicarbonate Concentration, Mean / Serum Bicarbonate Concentration, Median / Serum Bicarbonate Concentration, LS Mean / Serum Bicarbonate Concentration, Change from Baseline, Mean / Serum Bicarbonate Concentration, Change from Baseline, Median / Serum Bicarbonate Concentration, Treatment Differences, LS Mean (KRX-0502) − LS Mean (control), (SE): Table 18; for Serum Bicarbonate Concentration, LS Mean: ANCOVA
Description: Serum bicarbonate was performed at a local laboratory and was done at the Randomization Visit (Visit 4); at Visits 11 (Week 12), 14 (Week 24), 17 (Week 36), 20 (Week 48) and 21 (Week 52) during the Safety Assessment Period; and at Visit 25 (Week 56) of the Efficacy Assessment Period.
• 1. Change in serum calcium concentration at Weeks 12, 24, 36, 48, and 52 as compared to baseline (Visit 4). This variable will be analyzed using LOCF methodology. ANCOVA will be employed. The model will include treatment (fixed effect), and baseline (covariate). • 2. Change in ferritin, and TSAT at Weeks 12, 24, 36 and 48 as compared to baseline (Visit 4). This variable will be analyzed using LOCF methodology. ANCOVA will be employed. The model will include treatment (fixed effect), and baseline (covariate). • 3. Change in serum iron and TIBC at Weeks 12, 24, 36, 48, and 52 as compared to baseline (Visit 4). This variable will be analyzed using LOCF methodology. ANCOVA will be employed. The model will include treatment (fixed effect), and baseline (covariate). • 4. Change in Ca x P product at Weeks 12, 24, 36, 48, and 52 as compared to baseline (Visit 4). This variable will be analyzed using LOCF methodology. ANCOVA will be employed. The model will include treatment (fixed effect), and baseline (covariate). • 5. Change in iPTH at Weeks 12, 36, 52, and 56 as compared to baseline (Visit 4). This variable will be analyzed using LOCF methodology. ANCOVA will be employed. The model will include treatment (fixed effect), and baseline (covariate). • 6. Change in serum […], vitamin A, vitamin B-12, vitamin E, vitamin K and folic acid at Weeks 12, 36, and 52 as compared to baseline (Visit 4). This variable will be analyzed using LOCF methodology. ANCOVA will be employed. The model will include treatment (fixed effect), and baseline (covariate). • 7. Change in serum bicarbonate concentration at Weeks 12, 36, and 52 as compared to baseline (Visit 4). This variable will be analyzed using LOCF methodology. ANCOVA will be employed. The model will include treatment (fixed effect), and baseline (covariate). • 8. Change in IV iron intake at Weeks 12, 24, 36, 48, and 52 as compared to baseline (Visit 4). This variable will be analyzed using LOCF methodology. ANCOVA will be employed. The model will include treatment (fixed effect), and baseline (covariate). • 9. Change in the use of EPO (ESA) administered at Weeks 12, 24, 36, 48, and 52 as compared to baseline (Visit 4). This variable will be analyzed using LOCF methodology. ANCOVA will be employed. The model will include treatment (fixed effect), and baseline (covariate). • 10. Change in the use of Vitamin D supplementation (and its analogs) and Sensipar (cinacalcet) at Weeks 12, 24, 36, 48, and 52 as compared to baseline (Visit 4). This variable will be analyzed using LOCF methodology. ANCOVA will be employed. The model will include treatment (fixed effect), and baseline (covariate). • 11. Change in LDL, HDL, and triglycerides at Weeks 12, 36, and 52 as compared to baseline (Visit 4). This variable will be analyzed using LOCF methodology. ANCOVA will be employed. The model will include treatment (fixed effect), and baseline (covariate).

[2] = Phase 3 trial (Example 1): cumulative EPO (ESA) administered to Week 52
Source text: The cumulative EPO (ESA) administrated from randomization to Week 52 will be compared between treatment groups. This variable will be similarly analyzed as the primary efficacy variable using ANCOVA method. The two-sided 95% confidence intervals of treatment differences for all above comparisons will be presented.

[3] = test system: serum phosphorus; test: Phase 2 trial in anemic Stage III to V CKD subjects not on dialysis (Example 2): serum phosphorus
Description: This trial is a three-period clinical trial consisting of a screening period, a two-week washout period, and a 12-week treatment period.
If a subject has a serum phosphorus ≥6.0 mg/dL for at least two visits in a row during the 12-week treatment period, the subject is considered a treatment failure, stops study drug and exits the study.
The target level for serum phosphorus is 3.0 to 4.0 mg/dL. Subjects are titrated as follows: • 1. If serum phosphorus is at target (3.0 to 4.0 mg/dL), no adjustment in dose is required. • 2.
(§1) Change in serum phosphorus, ferritin and TSAT levels from baseline to end of treatment after 12 weeks are the primary endpoints.
The co-primary efficacy endpoints of this trial were the mean changes in serum phosphorus and TSAT from baseline to the end of the 12-week treatment period versus placebo in the ITT group.

[4] = test system: ferritin; test: Phase 2 trial (Example 2): ferritin
Source text: as §1
(§2) The key secondary endpoints of the study were the mean changes in ferritin, hemoglobin and FGF-23 from baseline to the end of the 12-week treatment period versus placebo in the ITT group.

[5] = test system: C-Terminal FGF-23; test: Phase 2 trial (Example 2): C-terminal FGF-23; details: n = 63
Source text: as §2

[6] = Day 0 Baseline, Safety Assessment Period
[7] = Week 12, last observation carried forward, ITT group, n = 72

iron (+3), x (1, 2, 3-propanetricarboxylic acid, 2-hydroxy-), y (H2O) [KRX-0502]
Serum Bicarbonate Concentration, Mean [1, 6]: 23.92
Serum Bicarbonate Concentration, Median [1, 6]: 24.00
Serum Bicarbonate Concentration, LS Mean ([1]; Week 12): 25.60
Serum Bicarbonate Concentration, Change from Baseline, Mean ([1]; Week 12): 1.57
Serum Bicarbonate Concentration, Change from Baseline, Median ([1]; Week 12): 1.05
Serum Bicarbonate Concentration, Mean ([1]; Week 12): 25.63
Serum Bicarbonate Concentration, Median ([1]; Week 12): 25.00
Serum Bicarbonate Concentration, Treatment Differences, LS Mean (KRX-0502) − LS Mean (control), (SE) ([1]; Week 12): −0.72 (0.37)
Serum Bicarbonate Concentration, LS Mean ([1]; Week 24): 25.35
Serum Bicarbonate Concentration, Change from Baseline, Mean ([1]; Week 24): 1.48
Serum Bicarbonate Concentration, Change from Baseline, Median ([1]; Week 24): 1.00
Serum Bicarbonate Concentration, Mean ([1]; Week 24): 25.39
Serum Bicarbonate Concentration, Median ([1]; Week 24): 25.45
Serum Bicarbonate Concentration, Treatment Differences, LS Mean (KRX-0502) − LS Mean (control), (SE) ([1]; Week 24): −0.39 (0.38)
Serum Bicarbonate Concentration, LS Mean ([1]; Week 36): 25.22
Serum Bicarbonate Concentration, Change from Baseline, Mean ([1]; Week 36): 1.36
Serum Bicarbonate Concentration, Change from Baseline, Median ([1]; Week 36): 1.00
Serum Bicarbonate Concentration, Mean ([1]; Week 36): 25.27
Serum Bicarbonate Concentration, Median ([1]; Week 36): 25.00
Serum Bicarbonate Concentration, Treatment Differences, LS Mean (KRX-0502) − LS Mean (control), (SE) ([1]; Week 36): −0.15 (0.34)
Serum Bicarbonate Concentration, LS Mean ([1]; Week 48): 24.78
Serum Bicarbonate Concentration, Change from Baseline, Mean ([1]; Week 48): 0.91
Serum Bicarbonate Concentration, Change from Baseline, Median ([1]; Week 48): 1.00
Serum Bicarbonate Concentration, Mean ([1]; Week 48): 24.81
Serum Bicarbonate Concentration, Median ([1]; Week 48): 25.00
Serum Bicarbonate Concentration, Treatment Differences, LS Mean (KRX-0502) − LS Mean (control), (SE) ([1]; Week 48): −0.52 (0.36)
Serum Bicarbonate Concentration, LS Mean ([1]; Week 52): 24.60
Serum Bicarbonate Concentration, Change from Baseline, Mean ([1]; Week 52): 0.71
Serum Bicarbonate Concentration, Change from Baseline, Median ([1]; Week 52): 1.00
Serum Bicarbonate Concentration, Mean ([1]; Week 52): 24.63
Serum Bicarbonate Concentration, Median ([1]; Week 52): 25.00
Serum Bicarbonate Concentration, Treatment Differences, LS Mean (KRX-0502) − LS Mean (control), (SE) ([1]; Week 52): −0.70 (0.44)
mean increase in serum bicarbonate concentration ([1]; administered for a period of 52 weeks, stated as embodiment): 0.71 mEq/L
Average Daily EPO (ESA) intake based on the Cumulative EPO (ESA) intake to week 52 (Visit 4-21), Median ([2]; Safety Assessment Period, Full Analysis Population, Method 1 to handle overlapping doses): 724.24
Average Daily EPO (ESA) intake based on the Cumulative EPO (ESA) intake to week 52 (Visit 4-21), Mean ([2]; Safety Assessment Period, Full Analysis Population, Method 1 to handle overlapping doses, SD in the next cell): 1077.67
decrease in median ESA intake ([2]; administered over a period of 52 weeks, stated as embodiment): 27.1%
Mean Serum Phosphorus, Baseline ([3]; Baseline, ITT group, n = 72): 4.5 mg/dL
Mean Serum Phosphorus, End of Treatment (Week 12) [3, 7]: 3.9 mg/dL
co-primary (serum phosphorus, TSAT) and key secondary endpoints (ferritin, hemoglobin, FGF-23) ([3]; mean changes baseline to end of 12-week treatment vs placebo, ITT, 141 subjects): met both co-primary and all key secondary endpoints with highly statistically significant results
ending serum phosphorus at Visit 11 (Week 12) ([3]; sample size assumption): approximately 4.3 mg/dL
Mean Ferritin, Baseline ([4]; Baseline, ITT group, n = 72): 116 ng/mL
Mean Ferritin, End of Treatment (Week 12) [4, 7]: 189 ng/mL
ending ferritin level at Visit 11 (Week 12) ([4]; sample size assumption): approximately 300 ng/mL
Mean C-Terminal FGF-23, Baseline ([5]; Baseline): 468 pg/mL
Mean C-Terminal FGF-23, End of Treatment (Week 12) ([5]; Week 12, last observation carried forward): 316 pg/mL
